Reference: ChEMBL document CHEMBL3616440, “Non-basic azolotriazinone MCHR1 antagonists for the treatment of obesity: An empirical brain-exposures-driven candidate selection for in vivo efficacy studies” (Bioorg Med Chem Lett, 2015)

What was measured:
[1] = biological target: T1, Melanin-concentrating hormone receptor 1 (Homo sapiens, UniProt Q99705); assay: Displacement of [125I][Phe13,Tyr19]-MCH from human MCHR1 expressed in HEK293 cells by scintillation counting analysis; type: cell-based
[2] = biological target: Melanin-concentrating hormone receptor 1 (Rattus norvegicus, UniProt P97639); assay: Displacement of [125I][Phe13,Tyr19]-MCH from rat MCHR1 by scintillation counting analysis
Liver = assay: Drug level in oral-dosed Sprague-Dawley rat liver treated with (2S)-1-(4-(6-(4-chlorophenyl)-4-oxopyrrolo[1,2-f][1,2,4]triazin-3(4H)-yl)-2-methoxyphenoxy)propan-2-yl 2-amino-3-methylbutanoate; type: ADME, tissue-based; details: in vivo
[3] = biological target: T1, Melanin-concentrating hormone receptor 1; assay: Antagonist activity at human MCHR1 expressed in HEK293 cells assessed as inhibition of MCH-induced Ca2+ influx for 120 mins by FLIPR assay; type: functional, cell-based
Plasma [4] = assay: Plasma concentration in Sprague-Dawley rat assessed as (R)-6-(5-chloropyridin-2-yl)-3-(4-(2-cyclopropyl-2-hydroxyethoxy)-3-methoxyphenyl)pyrrolo[1,2-f][1,2,4]triazin-4(3H)-one level at 10 mg/kg, po qd at 8 hrs; type: ADME, organism-based; details: in vivo
Brain [5] = assay: Drug concentration in Sprague-Dawley rat brain assessed as (R)-6-(5-chloropyridin-2-yl)-3-(4-(2-cyclopropyl-2-hydroxyethoxy)-3-methoxyphenyl)pyrrolo[1,2-f][1,2,4]triazin-4(3H)-one level at 10 mg/kg, po qd at 8 hrs; type: ADME, organism-based; details: in vivo, read-out: Drug uptake
Nucleic Acid [6] = assay: Ratio of drug level in Sprague-Dawley rat brain to plasma assessed as (R)-6-(5-chloropyridin-2-yl)-3-(4-(2-cyclopropyl-2-hydroxyethoxy)-3-methoxyphenyl)pyrrolo[1,2-f][1,2,4]triazin-4(3H)-one level at 10 mg/kg, po qd; type: ADME, organism-based
Plasma [7] = assay: Plasma concentration in Sprague-Dawley rat assessed as (R)-6-(4-chlorophenyl)-3-(4-(3-hydroxypyrrolidin-1-yl)-3-methoxyphenyl)pyrrolo[1,2-f][1,2,4]triazin-4(3H)-one level at 10 mg/kg, po qd at 8 hrs; type: ADME, organism-based; details: in vivo
Brain [8] = assay: Drug concentration in Sprague-Dawley rat brain assessed as (R)-6-(4-chlorophenyl)-3-(4-(3-hydroxypyrrolidin-1-yl)-3-methoxyphenyl)pyrrolo[1,2-f][1,2,4]triazin-4(3H)-one level at 10 mg/kg, po qd at 8 hrs; type: ADME, organism-based; details: in vivo, read-out: Drug uptake
Nucleic Acid [9] = assay: Ratio of drug level in Sprague-Dawley rat brain to plasma assessed as (R)-6-(4-chlorophenyl)-3-(4-(3-hydroxypyrrolidin-1-yl)-3-methoxyphenyl)pyrrolo[1,2-f][1,2,4]triazin-4(3H)-one level at 10 mg/kg, po qd; type: ADME, organism-based
[10] = biological target: T2, Voltage-gated inwardly rectifying potassium channel KCNH2 (Homo sapiens, UniProt Q12809); assay: Inhibition of human ERG by flux assay
hERG (KCNH2) = hERG (KCNH2) (Homo sapiens, UniProt Q12809); assay: Inhibition of human ERG at 1 uM by flux assay
Plasma [11] = assay: Plasma concentration in Sprague-Dawley rat assessed as 6-(4-chlorophenyl)-3-(4-((3S,4R)-3,4-dihydroxypyrrolidin-1-yl)-3-methoxyphenyl)pyrrolo[1,2-f][1,2,4]triazin-4(3H)-one level at 10 mg/kg, po qd at 8 hrs; type: ADME, organism-based; details: in vivo
Brain [12] = assay: Drug concentration in Sprague-Dawley rat brain assessed as 6-(4-chlorophenyl)-3-(4-((3S,4R)-3,4-dihydroxypyrrolidin-1-yl)-3-methoxyphenyl)pyrrolo[1,2-f][1,2,4]triazin-4(3H)-one level at 10 mg/kg, po qd at 8 hrs; type: ADME, organism-based; details: in vivo, read-out: Drug uptake
Nucleic Acid [13] = assay: Ratio of drug level in Sprague-Dawley rat brain to plasma assessed as 6-(4-chlorophenyl)-3-(4-((3S,4R)-3,4-dihydroxypyrrolidin-1-yl)-3-methoxyphenyl)pyrrolo[1,2-f][1,2,4]triazin-4(3H)-one level at 10 mg/kg, po qd; type: ADME, organism-based
[14] = biological target: T2, Voltage-gated inwardly rectifying potassium channel KCNH2; assay: Inhibition of human ERG expressed in CHO cells assessed as channel current by Q-patch electrophysiological assay; type: cell-based
Rattus norvegicus = assay: Drug level in oral-dosed Sprague-Dawley rat treated with 1-(4-(6-(4-chlorophenyl)-4-oxothieno[3,2-d]pyrimidin-3(4H)-yl)-2-methoxyphenoxy)-2-methylpropan-2-yl 2-aminoacetate; type: ADME, organism-based; details: in vivo
Plasma [15] = assay: Plasma concentration in Sprague-Dawley rat assessed as 6-(4-chlorophenyl)-3-(4-((3,3-difluoro-1-hydroxycyclobutyl)methoxy)-3-methoxyphenyl)pyrrolo[1,2-f][1,2,4]triazin-4(3H)-one level at 10 mg/kg, po qd at 8 hrs; type: ADME, organism-based; details: in vivo
Brain [16] = assay: Drug concentration in Sprague-Dawley rat brain assessed as 6-(4-chlorophenyl)-3-(4-((3,3-difluoro-1-hydroxycyclobutyl)methoxy)-3-methoxyphenyl)pyrrolo[1,2-f][1,2,4]triazin-4(3H)-one level at 10 mg/kg, po qd at 8 hrs; type: ADME, organism-based; details: in vivo, read-out: Drug uptake
Nucleic Acid [17] = assay: Ratio of drug level in Sprague-Dawley rat brain to plasma assessed as 6-(4-chlorophenyl)-3-(4-((3,3-difluoro-1-hydroxycyclobutyl)methoxy)-3-methoxyphenyl)pyrrolo[1,2-f][1,2,4]triazin-4(3H)-one level at 10 mg/kg, po qd; type: ADME, organism-based
Plasma [18] = assay: Plasma concentration in Sprague-Dawley rat assessed as (S)-6-(4-chlorophenyl)-3-(4-(3-(ethylsulfonyl)-2-hydroxypropoxy)-3-methoxyphenyl)pyrrolo[1,2-f][1,2,4]triazin-4(3H)-one level at 10 mg/kg, po qd at 8 hrs; type: ADME, organism-based; details: in vivo
Brain [19] = assay: Drug concentration in Sprague-Dawley rat brain assessed as (S)-6-(4-chlorophenyl)-3-(4-(3-(ethylsulfonyl)-2-hydroxypropoxy)-3-methoxyphenyl)pyrrolo[1,2-f][1,2,4]triazin-4(3H)-one level at 10 mg/kg, po qd at 8 hrs; type: ADME, organism-based; details: in vivo, read-out: Drug uptake
Nucleic Acid [20] = assay: Ratio of drug level in Sprague-Dawley rat brain to plasma assessed as (S)-6-(4-chlorophenyl)-3-(4-(3-(ethylsulfonyl)-2-hydroxypropoxy)-3-methoxyphenyl)pyrrolo[1,2-f][1,2,4]triazin-4(3H)-one level at 10 mg/kg, po qd; type: ADME, organism-based
Plasma [21] = assay: Plasma concentration in Sprague-Dawley rat assessed as 6-(5-chloropyridin-2-yl)-3-(4-(2-cyclopropyl-2-hydroxyethoxy)-3-methoxyphenyl)pyrrolo[1,2-f][1,2,4]triazin-4(3H)-one level at 10 mg/kg, po qd at 8 hrs; type: ADME, organism-based; details: in vivo
Brain [22] = assay: Drug concentration in Sprague-Dawley rat brain assessed as 6-(5-chloropyridin-2-yl)-3-(4-(2-cyclopropyl-2-hydroxyethoxy)-3-methoxyphenyl)pyrrolo[1,2-f][1,2,4]triazin-4(3H)-one level at 10 mg/kg, po qd at 8 hrs; type: ADME, organism-based; details: in vivo, read-out: Drug uptake
Nucleic Acid [23] = assay: Ratio of drug level in Sprague-Dawley rat brain to plasma assessed as 6-(5-chloropyridin-2-yl)-3-(4-(2-cyclopropyl-2-hydroxyethoxy)-3-methoxyphenyl)pyrrolo[1,2-f][1,2,4]triazin-4(3H)-one level at 10 mg/kg, po qd; type: ADME, organism-based

T2 sequence (Q12809 whole entry): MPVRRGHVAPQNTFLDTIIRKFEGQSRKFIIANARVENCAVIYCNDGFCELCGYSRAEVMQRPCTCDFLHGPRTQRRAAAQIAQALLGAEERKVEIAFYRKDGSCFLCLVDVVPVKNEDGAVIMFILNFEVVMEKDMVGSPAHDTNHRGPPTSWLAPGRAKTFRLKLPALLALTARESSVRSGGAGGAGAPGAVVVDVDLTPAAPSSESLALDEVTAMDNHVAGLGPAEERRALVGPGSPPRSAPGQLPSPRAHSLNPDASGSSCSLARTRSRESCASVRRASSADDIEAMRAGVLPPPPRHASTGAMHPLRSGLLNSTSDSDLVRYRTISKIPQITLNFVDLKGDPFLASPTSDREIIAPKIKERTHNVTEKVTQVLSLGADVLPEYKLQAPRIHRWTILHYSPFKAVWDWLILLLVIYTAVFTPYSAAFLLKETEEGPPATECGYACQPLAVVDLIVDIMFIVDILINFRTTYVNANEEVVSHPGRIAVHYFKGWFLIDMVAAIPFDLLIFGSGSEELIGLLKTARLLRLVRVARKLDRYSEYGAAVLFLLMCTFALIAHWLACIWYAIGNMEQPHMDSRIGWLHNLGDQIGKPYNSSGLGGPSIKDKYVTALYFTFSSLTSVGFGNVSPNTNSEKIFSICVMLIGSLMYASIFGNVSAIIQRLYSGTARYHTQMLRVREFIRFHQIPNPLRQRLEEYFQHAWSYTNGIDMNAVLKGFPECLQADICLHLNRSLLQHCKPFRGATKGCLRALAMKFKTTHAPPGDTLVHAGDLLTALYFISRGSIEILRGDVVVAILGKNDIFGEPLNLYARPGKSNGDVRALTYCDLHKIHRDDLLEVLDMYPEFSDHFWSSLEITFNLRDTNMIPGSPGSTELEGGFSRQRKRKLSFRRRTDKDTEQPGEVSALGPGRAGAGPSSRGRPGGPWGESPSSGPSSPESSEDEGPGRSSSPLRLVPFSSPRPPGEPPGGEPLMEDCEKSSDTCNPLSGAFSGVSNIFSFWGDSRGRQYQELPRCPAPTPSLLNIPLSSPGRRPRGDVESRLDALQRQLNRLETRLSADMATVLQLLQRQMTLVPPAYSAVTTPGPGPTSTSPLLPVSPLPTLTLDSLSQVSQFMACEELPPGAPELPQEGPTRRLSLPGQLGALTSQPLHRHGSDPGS
T1 sequence (Q99705 whole entry): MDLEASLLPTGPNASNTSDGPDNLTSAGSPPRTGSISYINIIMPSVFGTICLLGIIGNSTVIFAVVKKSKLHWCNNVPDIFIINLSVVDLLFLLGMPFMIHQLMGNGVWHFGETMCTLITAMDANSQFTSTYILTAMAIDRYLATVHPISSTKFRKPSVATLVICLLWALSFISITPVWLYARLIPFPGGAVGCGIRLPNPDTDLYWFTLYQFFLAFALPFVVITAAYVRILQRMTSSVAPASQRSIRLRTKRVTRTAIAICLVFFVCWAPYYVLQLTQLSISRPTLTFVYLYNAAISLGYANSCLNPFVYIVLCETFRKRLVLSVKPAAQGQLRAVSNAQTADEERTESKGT
Melanin-concentrating hormone receptor 1 (Rattus norvegicus, UniProt P97639), sequence (P97639 whole entry): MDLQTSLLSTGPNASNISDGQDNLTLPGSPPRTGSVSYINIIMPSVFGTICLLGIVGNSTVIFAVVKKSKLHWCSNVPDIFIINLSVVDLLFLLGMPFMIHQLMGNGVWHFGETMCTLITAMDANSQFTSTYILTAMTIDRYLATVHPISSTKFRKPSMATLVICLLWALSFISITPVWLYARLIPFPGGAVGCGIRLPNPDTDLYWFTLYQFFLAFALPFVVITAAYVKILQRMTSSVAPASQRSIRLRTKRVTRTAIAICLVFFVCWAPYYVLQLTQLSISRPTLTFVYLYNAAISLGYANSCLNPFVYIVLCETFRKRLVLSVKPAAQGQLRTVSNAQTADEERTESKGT
hERG (KCNH2), sequence (Q12809 whole entry): as the sequence (Q12809 whole entry) above

SMILES	Ki [1] [nM]	Ki [2] [nM]	other results
CNC1CCN(c2ccc(-n3cnn4cc(-c5ccc(Cl)cc5)cc4c3=O)cn2)C1 (centres undefined)	0.4	0.3	–
COc1cc(-n2cnn3cc(-c4ccc(Cl)cc4)cc3c2=O)ccc1OCC(O)CO (centres undefined)	–	–	Drug metabolism (Liver): metabolite_detected
COc1cc(-n2cnn3cc(-c4ccc(Cl)cn4)cc3c2=O)ccc1N1CC[C@@H](O)C1	9.1	9.6	–
COc1cc(-n2cnn3cc(-c4ccc(Cl)cn4)cc3c2=O)ccc1OC[C@H](OC(=O)CN)C1CC1	–	–	concentration (Plasma [4]): 7450 nM; concentration (Brain [5]): 1150 nM; BPR (Nucleic Acid [6]): 0.2
COc1cc(-n2cnn3cc(-c4ccc(Cl)cc4)cc3c2=O)ccc1N1CC[C@@H](OC(=O)[C@@H](N)C(C)C)C1	–	–	concentration (Plasma [7]): 339 nM; concentration (Brain [8]): 966 nM; BPR (Nucleic Acid [9]): 2.9
O=c1c2cc(-c3ccc(Cl)cc3)cn2ncn1-c1ccc(N2CC(O)C2)nc1	15	14	IC50 [10]: 3300 nM
O=c1c2cc(-c3ccc(Cl)cc3)cn2ncn1-c1ccc(N2CC[C@@H](O)C2)nc1	5.3	5.5	inhibition at 1 µM (hERG (KCNH2)): 26%
COc1cc(-n2cnn3cc(-c4ccc(Cl)cc4)cc3c2=O)ccc1N1C[C@H](OC(=O)[C@@H](N)C(C)C)[C@H](OC(=O)[C@@H](N)C(C)C)C1	–	–	concentration (Plasma [11]): 272 nM; concentration (Brain [12]): 210 nM; BPR (Nucleic Acid [13]): 0.77
COc1cc(-n2cnn3cc(-c4ncc(Cl)cn4)cc3c2=O)ccc1OCC(C)(C)O	13	15	–
O=c1c2cc(-c3ccc(Cl)cc3)cn2ncn1-c1ccc(N2CCC(O)CC2)nc1	12	18	IC50 [14]: > 10000 nM; IC50 [10]: > 80000 nM
CCS(=O)(=O)C[C@@H](O)COc1ccc(-n2cnn3cc(-c4ncc(Cl)cn4)cc3c2=O)cc1OC	28	23	–
COc1cc(-n2cnc3cc(-c4ccc(Cl)cc4)sc3c2=O)ccc1OCC(C)(O)C(=O)O (centres undefined)	–	–	Drug metabolism (Rattus norvegicus): metabolite_detected
O=c1c2cc(-c3ccc(Cl)cc3)cn2ncn1-c1ccc(N2CCC(N3CC(O)C3)C2)nc1 (centres undefined)	0.8	1.4	IC50 [10]: 2000 nM
COc1cc(-n2cnn3cc(-c4ccc(Cl)cc4)cc3c2=O)ccc1OCC1(OC(=O)CN)CC(F)(F)C1	–	–	concentration (Plasma [15]): 477 nM; concentration (Brain [16]): 2380 nM; BPR (Nucleic Acid [17]): 0.6
COc1cc(-n2cnn3cc(-c4ncc(Cl)cn4)cc3c2=O)ccc1OCC(O)C1CC1 (centres undefined)	17	15	–
COc1cc(-n2cnc3cc(-c4ccc(Cl)cc4)sc3c2=O)ccc1OCC(C)(O)CO (centres undefined)	–	–	Drug metabolism (Rattus norvegicus): metabolite_detected
COc1cc(-n2cnn3cc(-c4ncc(Cl)cn4)cc3c2=O)ccc1OCC1(O)CC(F)(F)C1	9	7.9	–
O=c1c2cc(-c3ccc(Cl)cn3)cn2ncn1-c1ccc(N2CC[C@@H](O)C2)nc1	124	54	–
COc1cc(-n2cnn3cc(-c4ccc(Cl)cc4)cc3c2=O)ccc1OCC(O)C(=O)O (centres undefined)	–	–	Drug metabolism (Liver): metabolite_detected
CCS(=O)(=O)C[C@@H](O)COc1ccc(-n2cnn3cc(-c4ccc(Cl)cn4)cc3c2=O)cc1OC	15	8.7	–
CCS(=O)(=O)C[C@H](COc1ccc(-n2cnn3cc(-c4ccc(Cl)cc4)cc3c2=O)cc1OC)OC(=O)CN	–	–	concentration (Plasma [18]): 1830 nM; concentration (Brain [19]): 175 nM; BPR (Nucleic Acid [20]): 0.1
COc1cc(-n2cnn3cc(-c4ccc(Cl)cn4)cc3c2=O)ccc1OCC(OC(=O)[C@@H](N)C(C)C)C1CC1 (some centres undefined)	–	–	concentration (Plasma [21]): 10200 nM; concentration (Brain [22]): 2040 nM; BPR (Nucleic Acid [23]): 0.2

Further lines, with some results ahead:

Ki [1] [nM]	Ki [2] [nM]	SMILES	other results
76	87	COc1ccc(-n2cnn3cc(-c4ccc(Cl)cc4)nc3c2=O)cc1OC	–
3.4	3.8	COc1cc(-n2cnn3cc(-c4ccc(Cl)cc4)cc3c2=O)ccc1OCC1(O)CC(F)(F)C1	–
86	106	COc1ccc(-n2cnn3nc(-c4ccc(Cl)cc4)cc3c2=O)cc1OC	–
21	8	COc1ccc(-n2cnn3cc(-c4ccc(Cl)cc4)cc3c2=O)cc1OC	–
3.5	–	COc1cc(-n2cnn3cc(-c4ccc(Cl)cc4)cc3c2=O)ccc1OCC(O)C1CC1 (centres undefined)	IC50 [3]: 300 nM
2.3	1.8	COc1cc(-n2cnn3cc(-c4ccc(Cl)cc4)cc3c2=O)ccc1OCC(C)(C)O	IC50 [3]: 44 nM
13	12	COc1cc(-n2cnn3cc(-c4ccc(Cl)cn4)cc3c2=O)ccc1OCC(O)C1CC1 (centres undefined)	–
26	18	COc1cc(-n2cnn3cc(-c4ccc(Cl)cc4)nc3c2=O)ccc1OCC(O)C1CC1 (centres undefined)	–
2.4	1.5	CCS(=O)(=O)C[C@@H](O)COc1ccc(-n2cnn3cc(-c4ccc(Cl)cc4)cc3c2=O)cc1OC	–
0.7	0.5	COc1cc(-n2cnn3nc(-c4ccc(Cl)cc4)cc3c2=O)ccc1OCCN1CCCC1	–
3.1	2.3	COc1cc(-n2cnn3cc(-c4ccc(Cl)cc4)cc3c2=O)ccc1N1C[C@@H](O)[C@@H](O)C1	IC50 [3]: 5000 nM
0.5	0.4	COc1cc(-n2cnn3cc(-c4ccc(Cl)cc4)cc3c2=O)ccc1OCCN1CCCC1	IC50 [10]: 5500 nM
4.4	2.6	COc1cc(-n2cnn3cc(-c4ccc(Cl)cc4)nc3c2=O)ccc1OCCN1CCCC1	–
13	13	COc1cc(-n2cnn3nc(-c4ccc(Cl)cc4)cc3c2=O)ccc1OCC(O)C1CC1 (centres undefined)	–
6.5	6.5	COc1cc(-n2cnn3cc(-c4ccc(Cl)cn4)cc3c2=O)ccc1OCC1(O)CC(F)(F)C1	–
6.5	12	COc1cc(-n2cnn3cc(-c4ccc(Cl)cn4)cc3c2=O)ccc1OC[C@H](O)C1CC1	–
–	1.4	COc1cc(-n2cnn3cc(-c4ccc(Cl)cc4)cc3c2=O)ccc1OCC(C)O (centres undefined)	–
4.8	4.7	COc1cc(-n2cnn3cc(-c4ccc(Cl)cc4)cc3c2=O)ccc1N1CC[C@@H](O)C1	–
